Test results taken from PubChem BioAssay (NCI).
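Protocol summary: plate cells (96-well), add compound at 5 concentrations, incubate 48 h, interpolate endpoints linearly. The concentration for full growth arrest is given as TGI.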

Assays:
Assay in all cases: NCI-60 cell line screen, 48 h
EKVX NSCLC = system: EKVX NSCLC
UACC-62 melanoma = system: UACC-62 melanoma
KM12 colon = system: KM12 colon
T-47D breast = system: T-47D breast
MALME-3M melanoma = system: MALME-3M melanoma
ACHN renal = system: ACHN renal
SNB-75 CNS = system: SNB-75 CNS
U251 CNS = system: U251 CNS
SK-OV-3 ovarian = system: SK-OV-3 ovarian
SF-539 CNS = system: SF-539 CNS
OVCAR-5 ovarian = system: OVCAR-5 ovarian
COLO 205 colon = system: COLO 205 colon
NCI/ADR-RES ovarian = system: NCI/ADR-RES ovarian
UO-31 renal = system: UO-31 renal
HT29 colon = system: HT29 colon
MDA-MB-435 = system: MDA-MB-435
HCT-15 colon = system: HCT-15 colon
A498 renal = system: A498 renal
BT-549 breast = system: BT-549 breast
HOP-92 NSCLC = system: HOP-92 NSCLC
K-562 leukemia = system: K-562 leukemia
HL-60(TB) leukemia = system: HL-60(TB) leukemia
SN12C renal = system: SN12C renal
SK-MEL-28 melanoma = system: SK-MEL-28 melanoma
MDA-N = system: MDA-N
LOX IMVI melanoma = system: LOX IMVI melanoma
DU-145 prostate = system: DU-145 prostate
PC-3 prostate = system: PC-3 prostate
HCC-2998 colon = system: HCC-2998 colon
MCF7 breast = system: MCF7 breast
HS 578T breast = system: HS 578T breast
SF-295 CNS = system: SF-295 CNS
786-0 renal = system: 786-0 renal
MDA-MB-231 breast = system: MDA-MB-231 breast
OVCAR-8 ovarian = system: OVCAR-8 ovarian
SK-MEL-2 melanoma = system: SK-MEL-2 melanoma
SR leukemia = system: SR leukemia
HCT-116 colon = system: HCT-116 colon
SK-MEL-5 melanoma = system: SK-MEL-5 melanoma
OVCAR-3 ovarian = system: OVCAR-3 ovarian
CAKI-1 renal = system: CAKI-1 renal
RPMI-8226 leukemia = system: RPMI-8226 leukemia
SNB-19 CNS = system: SNB-19 CNS
SW-620 colon = system: SW-620 colon
SF-268 CNS = system: SF-268 CNS
NCI-H522 lung = system: NCI-H522 lung
CCRF-CEM leukemia = system: CCRF-CEM leukemia
MOLT-4 leukemia = system: MOLT-4 leukemia
A549 NSCLC = system: A549 NSCLC
M14 melanoma = system: M14 melanoma
NCI-H460 lung = system: NCI-H460 lung
NCI-H23 lung = system: NCI-H23 lung
HOP-62 NSCLC = system: HOP-62 NSCLC
IGROV1 ovarian = system: IGROV1 ovarian
TK-10 renal = system: TK-10 renal
UACC-257 melanoma = system: UACC-257 melanoma
RXF 393 renal = system: RXF 393 renal

## CC(O)C(O)C(O)C(/C=N\Nc1ccccc1)=N/Nc1ccccc1 (configuration not stated)
EKVX NSCLC
  TGI: 27.6 µM
UACC-62 melanoma
  TGI: 22.2 µM
KM12 colon
  TGI: 21.6 µM
T-47D breast
  TGI: 45.9 µM
MALME-3M melanoma
  TGI: 43.5 µM
ACHN renal
  TGI: 25.3 µM
SNB-75 CNS
  TGI: 38.4 µM
U251 CNS
  TGI: 27.2 µM
SK-OV-3 ovarian
  TGI: 29.7 µM
SF-539 CNS
  TGI: 28.3 µM
OVCAR-5 ovarian
  TGI: 27.5 µM
COLO 205 colon
  TGI: 27.4 µM
NCI/ADR-RES ovarian
  TGI: 40.2 µM
UO-31 renal
  TGI: 25.7 µM
HT29 colon
  TGI: 30.8 µM
MDA-MB-435
  TGI: 26.7 µM
HCT-15 colon
  TGI: 27 µM
A498 renal
  TGI: 22.6 µM
BT-549 breast
  TGI: 29.4 µM
HOP-92 NSCLC
  TGI: 36 µM
K-562 leukemia
  TGI: 40.8 µM
HL-60(TB) leukemia
  TGI: 45.3 µM
SN12C renal
  TGI: 34.5 µM
SK-MEL-28 melanoma
  TGI: 30.2 µM
MDA-N
  TGI: 25.1 µM
LOX IMVI melanoma
  TGI: 18.1 µM
DU-145 prostate
  TGI: 35.7 µM
PC-3 prostate
  TGI: 49.6 µM
HCC-2998 colon
  TGI: 23.3 µM
MCF7 breast
  TGI: 24.1 µM
HS 578T breast
  TGI: 24.7 µM
SF-295 CNS
  TGI: 25.7 µM
786-0 renal
  TGI: 29.8 µM
MDA-MB-231 breast
  TGI: 27.3 µM
OVCAR-8 ovarian
  TGI: 38.1 µM
SK-MEL-2 melanoma
  TGI: 21.5 µM
SR leukemia
  TGI: 41.9 µM
HCT-116 colon
  TGI: 30.5 µM
SK-MEL-5 melanoma
  TGI: 28.5 µM
OVCAR-3 ovarian
  TGI: 40.4 µM
CAKI-1 renal
  TGI: 11.1 µM
RPMI-8226 leukemia
  TGI: 57.1 µM
SNB-19 CNS
  TGI: 29.1 µM
SW-620 colon
  TGI: 25.8 µM
SF-268 CNS
  TGI: 24.5 µM
NCI-H522 lung
  TGI: 20.9 µM
CCRF-CEM leukemia
  TGI: 52.3 µM
MOLT-4 leukemia
  TGI: 69.5 µM
A549 NSCLC
  TGI: 28.7 µM
M14 melanoma
  TGI: 27.9 µM
NCI-H460 lung
  TGI: 24.6 µM
NCI-H23 lung
  TGI: 24.1 µM
HOP-62 NSCLC
  TGI: 30.3 µM
IGROV1 ovarian
  TGI: 21.4 µM
TK-10 renal
  TGI: 35.4 µM

## COc1cc2c(cc1C)NC(=O)/C2=C/c1c(Cl)n(-c2ccccc2)c2ccccc12
EKVX NSCLC
  TGI: > 100 µM
UACC-62 melanoma
  TGI: 73.5 µM
KM12 colon
  TGI: > 100 µM
T-47D breast
  TGI: 40.4 µM
MALME-3M melanoma
  TGI: 37.2 µM
ACHN renal
  TGI: > 100 µM
SNB-75 CNS
  TGI: > 100 µM
U251 CNS
  TGI: 64.3 µM
SK-OV-3 ovarian
  TGI: 69.7 µM
SF-539 CNS
  TGI: 24.3 µM
OVCAR-5 ovarian
  TGI: > 100 µM
COLO 205 colon
  TGI: 18.5 µM
NCI/ADR-RES ovarian
  TGI: 67.7 µM
UO-31 renal
  TGI: > 100 µM
HT29 colon
  TGI: > 100 µM
MDA-MB-435
  TGI: 45.5 µM
HCT-15 colon
  TGI: 67.3 µM
A498 renal
  TGI: > 100 µM
BT-549 breast
  TGI: 66.5 µM
UACC-257 melanoma
  TGI: 61.7 µM
HOP-92 NSCLC
  TGI: > 100 µM
K-562 leukemia
  TGI: > 100 µM
HL-60(TB) leukemia
  TGI: 22 µM
SN12C renal
  TGI: 23.6 µM
SK-MEL-28 melanoma
  TGI: > 100 µM
MDA-N
  TGI: 37 µM
LOX IMVI melanoma
  TGI: 27.8 µM
DU-145 prostate
  TGI: > 100 µM
PC-3 prostate
  TGI: > 100 µM
HCC-2998 colon
  TGI: 24.2 µM
MCF7 breast
  TGI: > 100 µM
HS 578T breast
  TGI: > 100 µM
SF-295 CNS
  TGI: 49 µM
786-0 renal
  TGI: 43.3 µM
MDA-MB-231 breast
  TGI: > 100 µM
OVCAR-8 ovarian
  TGI: > 100 µM
SK-MEL-2 melanoma
  TGI: 36 µM
SR leukemia
  TGI: 32.9 µM
HCT-116 colon
  TGI: 61.1 µM
SK-MEL-5 melanoma
  TGI: 22.3 µM
OVCAR-3 ovarian
  TGI: 28 µM
CAKI-1 renal
  TGI: > 100 µM
RXF 393 renal
  TGI: 38.5 µM
RPMI-8226 leukemia
  TGI: 52.8 µM
SNB-19 CNS
  TGI: > 100 µM
SW-620 colon
  TGI: 38.7 µM
SF-268 CNS
  TGI: > 100 µM
NCI-H522 lung
  TGI: 32.2 µM
CCRF-CEM leukemia
  TGI: 30.8 µM
MOLT-4 leukemia
  TGI: 33.8 µM
A549 NSCLC
  TGI: > 100 µM
M14 melanoma
  TGI: 63.1 µM
NCI-H460 lung
  TGI: 30.4 µM
NCI-H23 lung
  TGI: 81.8 µM
HOP-62 NSCLC
  TGI: 63.7 µM
IGROV1 ovarian
  TGI: > 100 µM
TK-10 renal
  TGI: > 100 µM
